Laboratory results: patent publication US8080570B2, “α2B and α2C agonists” (Allergan, Inc., priority 2008, dated 2011)

Assays:
Assay type in all cases: cell-based
α2A = target: T1, α2A (Homo sapiens, UniProt P08913); assay: FLIPR intracellular calcium assay, α2A; conditions: for EC50: FLIPR, fluo-3 calcium, NA = not active, read-out: α2A potency (EC50); for α2A relative efficacy: value in parentheses, relative to a standard full agonist
T1 sequence (P08913 1-465): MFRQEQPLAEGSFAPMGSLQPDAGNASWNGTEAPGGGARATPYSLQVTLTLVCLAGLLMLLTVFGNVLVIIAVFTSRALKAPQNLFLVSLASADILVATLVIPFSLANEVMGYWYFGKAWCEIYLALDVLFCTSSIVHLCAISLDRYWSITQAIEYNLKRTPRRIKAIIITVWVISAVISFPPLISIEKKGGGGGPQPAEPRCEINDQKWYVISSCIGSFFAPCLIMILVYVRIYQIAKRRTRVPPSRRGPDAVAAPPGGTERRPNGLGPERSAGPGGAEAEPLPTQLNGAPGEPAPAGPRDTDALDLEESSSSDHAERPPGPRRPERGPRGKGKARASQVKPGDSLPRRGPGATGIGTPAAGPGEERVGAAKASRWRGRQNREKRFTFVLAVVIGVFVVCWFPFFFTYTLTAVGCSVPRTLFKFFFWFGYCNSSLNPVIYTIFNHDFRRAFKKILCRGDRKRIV

α2B = target: T2, α2B (Homo sapiens, UniProt P18089); assay: FLIPR intracellular calcium assay, α2B; conditions: for EC50: FLIPR, fluo-3 calcium, NA = not active, read-out: α2B potency (EC50); for α2B relative efficacy: value in parentheses, relative to a standard full agonist
T2 sequence (P18089 1-450): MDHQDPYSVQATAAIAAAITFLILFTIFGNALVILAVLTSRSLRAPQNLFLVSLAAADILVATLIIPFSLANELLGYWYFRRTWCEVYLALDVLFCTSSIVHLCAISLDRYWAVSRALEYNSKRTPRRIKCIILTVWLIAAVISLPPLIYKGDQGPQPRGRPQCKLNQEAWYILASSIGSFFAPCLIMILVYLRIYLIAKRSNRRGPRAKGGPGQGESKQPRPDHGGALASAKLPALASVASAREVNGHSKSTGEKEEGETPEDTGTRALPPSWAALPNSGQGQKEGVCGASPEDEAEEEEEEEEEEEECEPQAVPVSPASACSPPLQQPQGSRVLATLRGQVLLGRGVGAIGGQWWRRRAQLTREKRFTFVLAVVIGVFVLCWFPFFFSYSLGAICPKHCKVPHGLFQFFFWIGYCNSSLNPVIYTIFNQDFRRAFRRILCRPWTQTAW

α2C = target: T3, α2C (Homo sapiens, UniProt P18825); assay: FLIPR intracellular calcium assay, α2C; conditions: for EC50: read-out: α2C potency (EC50); for α2C relative efficacy: value in parentheses, relative to a standard full agonist
T3 sequence (P18825 1-462): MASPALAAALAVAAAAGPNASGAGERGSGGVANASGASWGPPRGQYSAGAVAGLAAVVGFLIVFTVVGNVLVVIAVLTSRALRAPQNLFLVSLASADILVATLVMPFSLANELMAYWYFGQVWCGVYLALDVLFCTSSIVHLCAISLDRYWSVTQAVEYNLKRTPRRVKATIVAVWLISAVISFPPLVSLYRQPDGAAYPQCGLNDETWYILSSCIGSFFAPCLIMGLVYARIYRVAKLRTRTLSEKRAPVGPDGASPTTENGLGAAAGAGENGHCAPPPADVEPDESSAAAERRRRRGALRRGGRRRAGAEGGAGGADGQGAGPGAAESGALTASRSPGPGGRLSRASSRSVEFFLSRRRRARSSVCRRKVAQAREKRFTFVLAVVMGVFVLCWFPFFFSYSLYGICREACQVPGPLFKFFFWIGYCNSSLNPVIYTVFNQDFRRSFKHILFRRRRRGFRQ

α1A = target: T4, α1A (UniProt P35348); assay: FLIPR intracellular calcium assay, α1A; conditions: for EC50: FLIPR, fluo-3 calcium, NA = not active, read-out: α1A potency (EC50); for α1A relative efficacy: value in parentheses, relative to a standard full agonist
T4 sequence (P35348 1-466): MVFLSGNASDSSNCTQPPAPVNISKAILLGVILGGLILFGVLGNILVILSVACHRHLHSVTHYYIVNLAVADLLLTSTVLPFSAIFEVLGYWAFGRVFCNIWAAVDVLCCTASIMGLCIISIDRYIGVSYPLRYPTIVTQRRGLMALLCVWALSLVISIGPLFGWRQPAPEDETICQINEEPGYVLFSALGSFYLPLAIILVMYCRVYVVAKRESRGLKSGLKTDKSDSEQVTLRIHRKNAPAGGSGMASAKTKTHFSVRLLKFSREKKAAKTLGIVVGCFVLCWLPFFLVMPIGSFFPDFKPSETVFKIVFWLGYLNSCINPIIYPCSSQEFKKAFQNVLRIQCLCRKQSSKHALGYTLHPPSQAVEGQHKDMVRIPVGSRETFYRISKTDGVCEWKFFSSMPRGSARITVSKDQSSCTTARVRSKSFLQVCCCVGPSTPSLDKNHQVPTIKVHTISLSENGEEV
Description: (§1) Selected examples were tested via the intracellular calcium assay known as Fluorometric Imaging Plate Reader (FLIPR) which involves the detection of calcium pulses by fluo-3 for analyzing function proximal to α1 receptor activation. […] The compound's activity is expressed as its relative efficacy compared to a standard full agonist.

α1B = target: T5, α1B (UniProt P35368); assay: FLIPR intracellular calcium assay, α1B; conditions: for EC50: FLIPR, fluo-3 calcium, NA = not active, read-out: α1B potency (EC50); for α1B relative efficacy: value in parentheses, relative to a standard full agonist
T5 sequence (P35368 1-520): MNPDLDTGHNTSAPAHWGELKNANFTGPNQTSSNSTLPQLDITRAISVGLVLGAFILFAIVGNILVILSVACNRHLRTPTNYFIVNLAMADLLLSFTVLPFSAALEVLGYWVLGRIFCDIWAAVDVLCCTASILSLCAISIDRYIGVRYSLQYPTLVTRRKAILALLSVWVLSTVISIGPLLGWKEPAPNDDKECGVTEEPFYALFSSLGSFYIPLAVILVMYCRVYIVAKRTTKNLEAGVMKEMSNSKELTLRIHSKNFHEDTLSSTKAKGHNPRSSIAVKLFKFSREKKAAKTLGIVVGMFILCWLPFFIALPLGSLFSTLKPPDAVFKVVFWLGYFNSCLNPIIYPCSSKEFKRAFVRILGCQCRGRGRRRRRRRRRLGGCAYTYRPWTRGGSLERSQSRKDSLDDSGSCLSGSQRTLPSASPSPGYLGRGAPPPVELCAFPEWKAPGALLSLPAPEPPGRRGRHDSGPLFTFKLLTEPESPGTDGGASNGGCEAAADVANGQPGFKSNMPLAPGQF
Description: as §1

[1] = FLIPR, fluo-3 calcium, NA = not active

C#CC(C)NC1=NCCO1 (stereo not drawn) was tested, and the EC50 (α2A) was 4050 nM, the α2A relative efficacy (α2A) was 0.20 and the EC50 (α2B) was 413 nM. It also gave a α2B relative efficacy (α2B) of 0.77, an EC50 (α2C; [1]) of 34.6 nM and a α2C relative efficacy (α2C) of 0.89. The EC50 (α1A) was over 10000 nM and the EC50 (α1B) was over 10000 nM.
For C#CC(CC)NC1=NCCO1 (stereo not drawn), the EC50 (α2A) was 54.7 nM, the α2A relative efficacy (α2A) was 0.74 and the EC50 (α2B) was 91.5 nM. For the same compound, the α2B relative efficacy (α2B) was 0.82, the EC50 (α2C; [1]) was 0.004 nM and the α2C relative efficacy (α2C) was 0.87. For the same compound, the EC50 (α1A) was 6540 nM and the α1A relative efficacy (α1A) was 0.78.
Compound C#CC(CCC)NC1=NCCO1 (stereo not drawn) has an EC50 (α2A) of 664 nM, a α2A relative efficacy (α2A) of 0.44 and an EC50 (α2B) of 386 nM. It also gave a α2B relative efficacy (α2B) of 0.68, an EC50 (α2C; [1]) of 65 nM and a α2C relative efficacy (α2C) of 0.99. It also gave an EC50 (α1A) of 3030 nM, a α1A relative efficacy (α1A) of 0.72 and an EC50 (α1B) of over 10000 nM.
C#CC(CC(C)C)NC1=NCCO1 (stereo not drawn) gave an EC50 (α2A) of over 10000 nM, an EC50 (α2B) of 331 nM and a α2B relative efficacy (α2B) of 0.48. The EC50 (α2C; [1]) was 18.3 nM, the α2C relative efficacy (α2C) was 0.98 and the EC50 (α1A) was 7370 nM. For the same compound, the α1A relative efficacy (α1A) was 0.59 and the EC50 (α1B) was over 10000 nM.
With C#CC(NC1=NCCO1)c1ccccc1 (stereo not drawn) the α2A relative efficacy (α2A) was 0.04 (0.82), the α2B relative efficacy (α2B) was 1.12 (0.61) and the α2C relative efficacy (α2C) was “Potent (0.82)”. The α1A relative efficacy (α1A) was 0.58 (0.92).
C#C[C@H](NC1=NCCO1)C(C)C showed an EC50 (α2A) of 16.9 nM, a α2A relative efficacy (α2A) of 0.85 and an EC50 (α2B) of 64 nM. The α2B relative efficacy (α2B) was 0.88, the “α2C potency (EC50)” value (α2C; [1]) was “Potent” and the α2C relative efficacy (α2C) was 1.02. It also gave an EC50 (α1A) of 1200 nM, a α1A relative efficacy (α1A) of 0.93 and an EC50 (α1B) of 5940 nM. For the same compound, the α1B relative efficacy (α1B) was 0.28.
C#CC(NC1=NCCO1)C1CC1 (stereo not drawn) gave an EC50 (α2A) of 298 nM, a α2A relative efficacy (α2A) of 0.41 and an EC50 (α2B) of 354 nM. It also gave a α2B relative efficacy (α2B) of 0.71, an EC50 (α2C; [1]) of 127 nM and a α2C relative efficacy (α2C) of 0.89. The EC50 (α1B) was over 10000 nM.
C#CC(NC1=NCCO1)c1ccccc1Br (stereo not drawn) showed an EC50 (α2A) of over 10000 nM, an EC50 (α2B) of 361 nM and a α2B relative efficacy (α2B) of 0.36. The EC50 (α2C; [1]) was 295 nM, the α2C relative efficacy (α2C) was 0.81 and the EC50 (α1A) was 1650 nM. For the same compound, the α1A relative efficacy (α1A) was 0.34 and the EC50 (α1B) was over 10000 nM.
N#CC(NC1=NCCO1)c1ccccc1 (stereo not drawn) gave an EC50 (α2A) of 588 nM, a α2A relative efficacy (α2A) of 0.42 and an EC50 (α2B) of 215 nM. The α2B relative efficacy (α2B) was 0.56, the EC50 (α2C; [1]) was 158 nM and the α2C relative efficacy (α2C) was 0.76. The EC50 (α1A) was 1140 nM and the α1A relative efficacy (α1A) was 0.99.
C#CC(NC1=NCCO1)c1cccc(F)c1F (stereo not drawn) showed an EC50 (α2A) of 30 nM, a α2A relative efficacy (α2A) of 0.79 and an EC50 (α2B) of 25.9 nM. It also gave a α2B relative efficacy (α2B) of 0.50, an EC50 (α2C; [1]) of 6.01 nM and a α2C relative efficacy (α2C) of 0.88. The EC50 (α1A) was 40.8 nM, the α1A relative efficacy (α1A) was 0.96 and the EC50 (α1B) was 3510 nM. It also gave a α1B relative efficacy (α1B) of 0.54.
C#CC(NC1=NCCO1)c1cccc(Cl)c1 (stereo not drawn) was tested, and the EC50 (α2A) was 80.5 nM, the α2A relative efficacy (α2A) was 0.88 and the EC50 (α2B) was 218 nM. It also gave a α2B relative efficacy (α2B) of 0.56, an EC50 (α2C; [1]) of 382 nM and a α2C relative efficacy (α2C) of 0.78. The EC50 (α1A) was 410 nM, the α1A relative efficacy (α1A) was 0.81 and the EC50 (α1B) was 5360 nM. The α1B relative efficacy (α1B) was 0.24.
